Laboratory results taken from ChEMBL document CHEMBL1156471, “Targeting host cell furin proprotein convertases as a therapeutic strategy against bacterial toxins and viral pathogens” (J Biol Chem, 2007).
Non-standard residues stand in square brackets, D forms with d. Residues, ends and D or L forms follow the SMILES beside them. Nle = CCCC[C@H](N)C(=O)O; Ahx = NCCCCCC(=O)O; Sar = CNCC(=O)O

biological target: Furin (Homo sapiens, UniProt P09958)
Sequence (P09958 whole entry): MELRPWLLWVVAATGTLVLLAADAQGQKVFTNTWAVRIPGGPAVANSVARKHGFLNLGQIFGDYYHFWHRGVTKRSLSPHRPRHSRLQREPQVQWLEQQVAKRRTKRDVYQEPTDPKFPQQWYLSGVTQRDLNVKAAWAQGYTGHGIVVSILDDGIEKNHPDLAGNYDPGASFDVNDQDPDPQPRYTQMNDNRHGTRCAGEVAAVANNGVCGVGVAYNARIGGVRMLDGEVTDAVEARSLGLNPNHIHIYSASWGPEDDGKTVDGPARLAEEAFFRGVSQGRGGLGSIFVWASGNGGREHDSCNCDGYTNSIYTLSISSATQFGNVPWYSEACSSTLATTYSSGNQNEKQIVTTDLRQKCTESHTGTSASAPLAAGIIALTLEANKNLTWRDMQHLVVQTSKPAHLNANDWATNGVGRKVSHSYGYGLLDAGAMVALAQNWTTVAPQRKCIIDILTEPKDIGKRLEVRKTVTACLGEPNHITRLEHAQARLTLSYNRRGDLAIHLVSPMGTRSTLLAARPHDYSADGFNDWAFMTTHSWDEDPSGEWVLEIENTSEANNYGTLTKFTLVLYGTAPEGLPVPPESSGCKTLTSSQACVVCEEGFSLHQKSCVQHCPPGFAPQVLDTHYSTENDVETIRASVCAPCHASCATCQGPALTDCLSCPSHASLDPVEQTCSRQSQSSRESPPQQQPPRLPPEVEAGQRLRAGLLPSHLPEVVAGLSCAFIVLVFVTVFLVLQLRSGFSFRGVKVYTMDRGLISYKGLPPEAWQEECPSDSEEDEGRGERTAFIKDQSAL

How did the Ki turn out when `C[C@H](NC(=O)[C@H](C)NC(=O)[C@H](CCCNC(=N)N)NC(=O)[C@H](CCCNC(=N)N)NC(=O)[C@H](CCC(=O)O)NC(=O)[C@H](CCCNC(=N)N)NC(=O)[C@@H]1CCCN1C(=O)[C@@H](N)[C@@H](C)O)C(=O)N[C@@H](CCCCN)C(=O)N[C@@H](CCCNC(=N)N)C(=O)N(C)CC(=O)O` (H-TPRERRAAKR[Sar]-OH) was run?
Its Ki is > 100 nM.

How did the Ki turn out when H-GGGGGGTPQRARRRKKRW-OH was run?
The Ki was 88 nM.

H-AARERRRKKRV-OH was tested. Which Ki did it give?
Its Ki is > 100 nM.

How did the Ki turn out when H-TPRERARKKRG-OH was run?
Its Ki is > 100 nM.

How did the Ki turn out when H-TPQRARRRKKRI-OH was run?
The Ki was > 100 nM.

How did the Ki turn out when `C[C@H](O)[C@H](N)C(=O)N1CCC[C@H]1C(=O)N[C@@H](CCCNC(=N)N)C(=O)N[C@H](CCC(=O)O)C(=O)N[C@@H](CCCNC(=N)N)C(=O)N[C@@H](CCCNC(=N)N)C(=O)N[C@@H](CCCNC(=N)N)C(=O)N[C@@H](CCCCN)C(=O)N[C@@H](CCCCN)C(=O)N[C@@H](CCCNC(=N)N)C(=O)NCC(N)=O` was run?
Its Ki is > 100 nM.

Which Ki does the source give for H-TPQRPRRRKKRG-OH here?
Its Ki is > 100 nM.

How did the Ki turn out when H-TPRPRRRKKRG-NH2 was run?
The Ki was > 100 nM.

How did the Ki turn out when `C[C@H](NC(=O)[C@H](CCCNC(=N)N)NC(=O)[C@@H]1CCCN1C(=O)[C@@H](N)[C@@H](C)O)C(=O)N[C@@H](CCCNC(=N)N)C(=O)N[C@@H](CCCNC(=N)N)C(=O)N[C@@H](CCCNC(=N)N)C(=O)N[C@@H](CCCCN)C(=O)N[C@@H](CCCCN)C(=O)N[C@@H](CCCNC(=N)N)C(=O)N[C@@H](CS)C(=O)O` was run?
Its Ki is > 100 nM.

H-APRERRRKKRG-OH was tested. Which Ki did it give?
Its Ki is > 100 nM.

H-TPREAARKKRG-OH was tested. Which Ki did it give?
Its Ki is > 100 nM.

Which Ki does the source give for H-TPRPRRRKKRG-OH here?
Its Ki is > 100 nM.

H-TPQRARRRKKRL-OH was tested. Which Ki did it give?
The Ki was > 100 nM.

How did the Ki turn out when H-TPRHRRRKKRG-OH was run?
Its Ki is > 100 nM.

Which Ki does the source give for H-GGGTPRARRRKKRT-OH here?
The Ki was 39 nM.

`C[C@H](NC(=O)[C@H](CCCNC(=N)N)NC(=O)[C@H](CCC(N)=O)NC(=O)[C@@H]1CCCN1C(=O)[C@@H](N)[C@@H](C)O)C(=O)N[C@@H](CCCNC(=N)N)C(=O)N[C@@H](CCCNC(=N)N)C(=O)N[C@@H](CCCNC(=N)N)C(=O)N[C@@H](CCCCN)C(=O)N[C@@H](CCCCN)C(=O)N[C@@H](CCCNC(=N)N)C(=O)NCCCCCC(=O)O` (H-TPQRARRRKKR[Ahx]-OH) was tested. Which Ki did it give?
Its Ki is > 100 nM.

H-AAAERRRKKRG-OH was tested. Which Ki did it give?
The Ki was > 100 nM.

Which Ki does the source give for `C[C@@H](O)[C@H](N)C(=O)N1CCC[C@H]1C(=O)N[C@@H](CCC(N)=O)C(=O)N[C@@H](CCCNC(=N)N)C(=O)NCCCCCC(=O)N[C@@H](CCCNC(=N)N)C(=O)N[C@@H](CCCNC(=N)N)C(=O)N[C@@H](CCCNC(=N)N)C(=O)N[C@@H](CCCCN)C(=O)N[C@@H](CCCCN)C(=O)N[C@@H](CCCNC(=N)N)C(=O)NCC(=O)O` here?
Its Ki is > 100 nM.

For H-TPRERRRKARG-NH2, which Ki is on record?
The Ki was > 100 nM.

Which Ki does the source give for H-TPRARRRKKRP-NH2 here?
Its Ki is > 100 nM.

For H-TPRARRRKKRA-OH, which Ki is on record?
The Ki was > 100 nM.

With H-TPRNRRRKKRG-OH as the molecule, how does the Ki read?
The Ki was > 100 nM.

How did the Ki turn out when H-TPQRGRRRKKRG-OH was run?
The Ki was > 100 nM.

Which Ki does the source give for H-TPRARRRKKRV-OH here?
Its Ki is 80 nM.

With H-TPRARRRKKRR-NH2 as the molecule, how does the Ki read?
Its Ki is > 100 nM.

How did the Ki turn out when H-GAGAGATPQRARRRKKRW-OH was run?
The Ki was 127 nM.

`C[C@@H](O)[C@H](N)C(=O)N1CCC[C@H]1C(=O)N[C@@H](CCC(N)=O)C(=O)N[C@@H](CCCN=C(N)N)C(=O)N[C@@H](CCCCN)C(=O)N[C@@H](CCCN=C(N)N)C(=O)N[C@@H](CCCN=C(N)N)C(=O)N[C@@H](CCCN=C(N)N)C(=O)N[C@@H](CCCCN)C(=O)N[C@@H](CCCCN)C(=O)N[C@@H](CCCNC(=N)N)C(=O)NCC(=O)O` was tested. Which Ki did it give?
Its Ki is > 100 nM.

`C[C@@H](O)[C@H](N)C(=O)N1CCC[C@H]1C(=O)N[C@@H](CCCNC(=N)N)C(=O)N[C@@H](CCC(=O)O)C(=O)N[C@@H](CCCNC(=N)N)C(=O)N[C@@H](CCCNC(=N)N)C(=O)N[C@@H](CCCNC(=N)N)C(=O)N[C@@H](CCCCN)C(=O)N[C@@H](CCCCN)C(=O)N[C@@H](CCCNC(=N)N)C(=O)N(C)CC(=O)O` (H-TPRERRRKKR[Sar]-OH) was tested. Which Ki did it give?
The Ki was > 100 nM.

With H-TPQRDRRRKKRG-OH as the molecule, how does the Ki read?
Its Ki is > 100 nM.

For `C[C@@H](O)[C@H](N)C(=O)N1CCC[C@H]1C(=O)N[C@@H](CCCNC(=N)N)C(=O)N[C@H](CCC(=O)O)C(=O)N[C@@H](CCCNC(=N)N)C(=O)N[C@@H](CCCNC(=N)N)C(=O)N[C@@H](CCCNC(=N)N)C(=O)N[C@@H](CCCCN)C(=O)N[C@@H](CCCCN)C(=O)N[C@@H](CCCNC(=N)N)C(=O)NCC(=O)O`, which Ki is on record?
Its Ki is > 100 nM.

Which Ki does the source give for `C[C@H](NC(=O)[C@H](CCCNC(=N)N)NC(=O)[C@H](CCC(N)=O)NC(=O)[C@@H]1CCCN1C(=O)[C@@H](N)[C@@H](C)O)C(=O)N[C@@H](CCCNC(=N)N)C(=O)N[C@@H](CCCNC(=N)N)C(=O)N[C@@H](CCCNC(=N)N)C(=O)N[C@@H](CCCCN)C(=O)N[C@@H](CCCCN)C(=O)N[C@@H](CCCNC(=N)N)C(=O)N[C@H](CCCNC(=N)N)C(=O)O` here?
Its Ki is > 100 nM.

Which Ki does the source give for H-GGGGGGTPRARRRKKRT-OH here?
Its Ki is 66 nM.

For H-TPRYRRRKKRG-NH2, which Ki is on record?
Its Ki is > 100 nM.

`C[C@H](NC(=O)[C@@H](N)[C@@H](C)O)C(=O)N[C@@H](CCCNC(=N)N)C(=O)N[C@@H](CCC(=O)O)C(=O)N[C@@H](CCCNC(=N)N)C(=O)N[C@@H](CCCNC(=N)N)C(=O)N[C@@H](CCCNC(=N)N)C(=O)N[C@@H](CCCCN)C(=O)N[C@@H](CCCCN)C(=O)N[C@@H](CCCNC(=N)N)C(=O)N(C)CC(=O)O` (H-TARERRRKKR[Sar]-OH) was tested. Which Ki did it give?
The Ki was > 100 nM.

`C[C@@H](O)[C@H](N)C(=O)N1CCC[C@H]1C(=O)N[C@@H](CCCN=C(N)N)C(=O)NC1(C(=O)N[C@@H](CCCN=C(N)N)C(=O)N[C@@H](CCCN=C(N)N)C(=O)N[C@@H](CCCN=C(N)N)C(=O)N[C@@H](CCCCN)C(=O)N[C@@H](CCCCN)C(=O)N[C@@H](CCCN=C(N)N)C(=O)NCC(=O)O)CCCC1` was tested. Which Ki did it give?
The Ki was > 100 nM.

How did the Ki turn out when H-TPRTRRRKKRG-NH2 was run?
Its Ki is > 100 nM.

Which Ki does the source give for H-TPRVRRRKKRG-OH here?
Its Ki is > 100 nM.

With H-TPAERRRKKRV-OH as the molecule, how does the Ki read?
Its Ki is > 100 nM.

For `C[C@H](NC(=O)[C@H](CCCCN)NC(=O)[C@H](CCCNC(=N)N)NC(=O)[C@H](CCCNC(=N)N)NC(=O)[C@H](CCCNC(=N)N)NC(=O)[C@H](CCC(=O)O)NC(=O)[C@H](CCCNC(=N)N)NC(=O)[C@@H]1CCCN1C(=O)[C@@H](N)[C@@H](C)O)C(=O)N[C@@H](CCCNC(=N)N)C(=O)N(C)CC(=O)O` (H-TPRERRRKAR[Sar]-OH), which Ki is on record?
Its Ki is > 100 nM.

With H-TPRERRRAKRG-NH2 as the molecule, how does the Ki read?
The Ki was > 100 nM.

With `CSC[C@H](NC(=O)[C@H](CCCNC(=N)N)NC(=O)[C@H](CCCCN)NC(=O)[C@H](CCCCN)NC(=O)[C@H](CCCNC(=N)N)NC(=O)[C@H](CCCNC(=N)N)NC(=O)[C@H](CCCNC(=N)N)NC(=O)[C@H](C)NC(=O)[C@H](CCCNC(=N)N)NC(=O)[C@H](CCC(N)=O)NC(=O)[C@@H]1CCCN1C(=O)[C@@H](N)[C@@H](C)O)C(=O)O` (H-TPQRARRRKKRC(Me)-OH) as the molecule, how does the Ki read?
The Ki was 93 nM.

How did the Ki turn out when `C[C@@H](O)[C@H](N)C(=O)N1CCC[C@H]1C(=O)N[C@@H](CCC(N)=O)C(=O)N[C@@H](CCCNC(=N)N)C(=O)N[C@@H](CS)C(=O)N[C@@H](CCCNC(=N)N)C(=O)N[C@@H](CCCNC(=N)N)C(=O)N[C@@H](CCCNC(=N)N)C(=O)N[C@@H](CCCCN)C(=O)N[C@@H](CCCCN)C(=O)N[C@@H](CCCNC(=N)N)C(=O)NCC(=O)O` was run?
Its Ki is > 100 nM.

Which Ki does the source give for `CCCC[C@H](NC(=O)[C@H](CCCN=C(N)N)NC(=O)[C@H](CCCCN)NC(=O)[C@H](CCCCN)NC(=O)[C@H](CCCN=C(N)N)NC(=O)[C@H](CCCN=C(N)N)NC(=O)[C@H](CCCN=C(N)N)NC(=O)[C@H](C)NC(=O)[C@H](CCCN=C(N)N)NC(=O)[C@H](CCC(N)=O)NC(=O)[C@@H]1CCCN1C(=O)[C@@H](N)[C@@H](C)O)C(=O)O` (H-TPQRARRRKKR[Nle]-OH) here?
The Ki was > 100 nM.

H-TPRERRRAKRV-OH was tested. Which Ki did it give?
The Ki was > 100 nM.

H-TPRARRRKKRE-NH2 was tested. Which Ki did it give?
The Ki was > 100 nM.

For H-TPQRIRRRKKRG-OH, which Ki is on record?
Its Ki is > 100 nM.
